In US20120142667A1, “PYRIMIDINE DERIVATIVES AS ZAP-70 INHIBITORS” (priority 2009, published 2012):

Key:
ZAP-70 = biological target: T1, ZAP-70 (Homo sapiens, UniProt P43403); experiment: ZAP-70 kinobeads assay; type: binding; settings: cell lysate
T1 construct: endogenous in cells; host or cells: cell lysate
T1 sequence (P43403 1-619): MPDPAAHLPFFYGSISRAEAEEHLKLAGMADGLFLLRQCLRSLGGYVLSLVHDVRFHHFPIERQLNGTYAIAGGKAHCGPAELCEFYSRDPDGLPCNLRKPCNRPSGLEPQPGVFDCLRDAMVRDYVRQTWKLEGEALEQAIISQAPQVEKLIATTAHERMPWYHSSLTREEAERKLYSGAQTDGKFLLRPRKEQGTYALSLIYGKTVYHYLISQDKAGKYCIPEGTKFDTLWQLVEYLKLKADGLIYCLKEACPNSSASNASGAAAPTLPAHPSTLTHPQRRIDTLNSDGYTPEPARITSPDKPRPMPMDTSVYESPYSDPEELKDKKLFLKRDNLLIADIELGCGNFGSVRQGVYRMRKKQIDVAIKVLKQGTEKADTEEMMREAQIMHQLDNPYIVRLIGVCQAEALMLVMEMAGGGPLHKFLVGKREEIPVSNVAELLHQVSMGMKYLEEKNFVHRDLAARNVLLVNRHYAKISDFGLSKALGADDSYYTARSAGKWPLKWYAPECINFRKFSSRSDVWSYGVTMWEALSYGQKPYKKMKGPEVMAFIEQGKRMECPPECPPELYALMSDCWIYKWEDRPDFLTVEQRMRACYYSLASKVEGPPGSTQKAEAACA
In short: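 Competition binding: compounds at various concentrations incubated with cell lysate plus affinity matrix bearing immobilized aminopyrido-pyrimidine ligand 24. ZAP-70 retained on beads eluted and quantified by specific-antibody dot blot with infrared detection.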

[1] = test system: Calcium Ion Release in Cells; experiment: calcium release assay (measurement of calcium ion release in cells); type: cell-based; settings: calcium release assay as described in WO-A 2009/080638

Row | IC50 (ZAP-70) | IC50 [1] | SMILES
1 | 100 to 1000 nM | ≤ 1000 nM | COc1ccc(Nc2nc(Nc3cccnc3C)ncc2Cl)c(NS(C)(=O)=O)c1 [Example 77, N-(2-(5-chloro-2-(2-methylpyridin-3-ylamino)pyrimidin-4-ylamino)-5-methoxyphenyl)methanesulfonamide]
2 | 100 to 1000 nM | ≤ 1000 nM | COc1ccc(Nc2nc(Nc3cccnc3OC)ncc2Cl)c(NS(C)(=O)=O)c1 [Example 79, N-(2-(5-chloro-2-(2-methoxypyridin-3-ylamino)pyrimidin-4-ylamino)-5-methoxyphenyl)methanesulfonamide]
3 | 100 to 1000 nM | ≤ 1000 nM | COc1ccc(Nc2nc(Nc3ccnc(C)c3C)ncc2Cl)c(NS(C)(=O)=O)c1 [Example 80, N-(2-(5-chloro-2-(2,3-dimethylpyridin-4-ylamino)pyrimidin-4-ylamino)-5-methoxyphenyl)methanesulfonamide]
4 | ≤ 100 nM | ≤ 1000 nM | COc1ccc(Nc2nc(Nc3cnc(OCCO)cc3OC)ncc2Cl)c(NS(C)(=O)=O)c1 [Example 83, N-(2-(5-chloro-2-(6-(2-hydroxyethoxy)-4-methoxypyridin-3-ylamino)pyrimidin-4-ylamino)-5-methoxyphenyl)methanesulfonamide]
5 | 100 to 1000 nM | ≤ 1000 nM | COc1ccc(Nc2nc(Nc3cnc(OCCO)cc3C)ncc2Cl)c(NS(C)(=O)=O)c1 [Example 85, N-(2-(5-chloro-2-(6-(2-hydroxyethoxy)-4-methylpyridin-3-ylamino)pyrimidin-4-ylamino)-5-methoxyphenyl)methanesulfonamide]
6 | 100 to 1000 nM | ≤ 1000 nM | COc1ccc(Nc2nc(Nc3cc(OCCCO)ccc3C)ncc2Cl)c(NS(C)(=O)=O)c1 [Example 87, N-(2-(5-chloro-2-(5-(3-hydroxypropoxy)-2-methylphenylamino)pyrimidin-4-ylamino)-5-methoxyphenyl)methanesulfonamide]

The remaining lines, values behind:

Row | SMILES | IC50 (ZAP-70) | IC50 [1]
7 | COc1ccc(Nc2nc(Nc3ccncc3C)ncc2Cl)c(NS(C)(=O)=O)c1 [Example 70, N-(2-(5-chloro-2-(3-methylpyridin-4-ylamino)pyrimidin-4-ylamino)-5-methoxyphenyl)methanesulfonamide] | ≤ 100 nM | ≤ 1000 nM
8 | COc1ccc(Nc2nc(Nc3cnc(C)cc3C)ncc2Cl)c(NS(C)(=O)=O)c1 [Example 71, N-(2-(5-chloro-2-(4,6-dimethylpyridin-3-ylamino)pyrimidin-4-ylamino)-5-methoxyphenyl)methanesulfonamide] | ≤ 100 nM | ≤ 1000 nM
9 | COc1ccc(Nc2nc(Nc3ccncc3F)ncc2Cl)c(NS(C)(=O)=O)c1 [Example 72, N-(2-(5-chloro-2-(3-fluoropyridin-4-ylamino)pyrimidin-4-ylamino)-5-methoxyphenyl)methanesulfonamide] | 100 to 1000 nM | ≤ 1000 nM
10 | COc1ccc(Nc2nc(Nc3ccc(OCCO)cc3C)ncc2Cl)c(NS(C)(=O)=O)c1 [Example 73, N-(2-(5-chloro-2-(4-(2-hydroxyethoxy)-2-methylphenylamino)pyrimidin-4-ylamino)-5-methoxyphenyl)methanesulfonamide] | ≤ 100 nM | ≤ 1000 nM
11 | COc1ccc(Nc2nc(Nc3cnc(OC)cc3C)ncc2Cl)c(NS(C)(=O)=O)c1 [Example 74, N-(2-(5-chloro-2-(6-methoxy-4-methylpyridin-3-ylamino)pyrimidin-4-ylamino)-5-methoxyphenyl)methanesulfonamide] | 100 to 1000 nM | ≤ 1000 nM
12 | COc1ccc(Nc2nc(Nc3ccc(C)nc3C)ncc2Cl)c(NS(C)(=O)=O)c1 [Example 75, N-(2-(5-chloro-2-(2,6-dimethylpyridin-3-ylamino)pyrimidin-4-ylamino)-5-methoxyphenyl)methanesulfonamide] | ≤ 100 nM | ≤ 1000 nM
13 | COc1ccc(Nc2nc(Nc3ccncc3OC)ncc2Cl)c(NS(C)(=O)=O)c1 [Example 76, N-(2-(5-chloro-2-(3-methoxypyridin-4-ylamino)pyrimidin-4-ylamino)-5-methoxyphenyl)methanesulfonamide] | 100 to 1000 nM | ≤ 1000 nM
